Data as given in article PMC6906261 (The journal of pain : official journal of the American Pain …, 2019).
Structures can show the parent of a compound that is named as a salt.

Legend:
CD-1 mice [1] = conditions: general literature value; cited from earlier work
CD-1 mice [2] = conditions: mouse, in vivo
CD-1 mice [3] = conditions: mouse, in vivo; remark: listed apart in the source
CD-1 mice [4] = conditions: mouse, in vivo; remark: listed apart in the source
CD-1 mice [5] = conditions: mouse, in vivo; remark: listed apart in the source
TNFα mRNA = conditions: mouse, in vivo
CD-1 mice [6] = conditions: mouse, in vivo; remark: listed apart in the source

For `CN1CC[C@]23c4c5ccc(O)c4O[C@H]2[C@@H](O)C=C[C@H]3[C@H]1C5` [Morphine, Morphine sulfate pentahydrate], the “Tail flick A50 from the literature” value (CD-1 mice [1]) is given as “around 3.2 mg/kg”, the “Tolerance – Days to Zero Efficacy, CIPN, 10 mg/kg” value (CD-1 mice [2]) is given as 2.2 (1.9-3.3) days and the “Withdrawal GI output, CIPN mice” value (CD-1 mice [3]) is given as “robust jumping and GI output response”. The “Withdrawal GI output, pain-naïve mice” value (CD-1 mice [3]) was “robust jumping and GI output behavior”, the “Withdrawal jumping behavior, CIPN mice” value (CD-1 mice [3]) was “robust jumping and GI output response” and the “Withdrawal jumping behavior, pain-naïve mice” value (CD-1 mice [3]) was “robust jumping and GI output behavior”. The “Rotarod motor impairment (latency to fall)” value (CD-1 mice [4]) was “no impairment”, the “Anti-nociceptive efficacy on day 3, HIV Neuropathy” value (CD-1 mice [5]) was “zero efficacy” and the “Tolerance – Days to Zero Efficacy, HIV Neuropathy, 10 mg/kg” value (CD-1 mice [5]) was 3.0 (2.7-3.6) days. The “TNFα mRNA level in spinal cord in CIPN” value (TNFα mRNA) was “did not alter”.
For `C=CCN1CC[C@]23c4c5ccc(O)c4O[C@H]2C(=O)CC[C@@]3(O)[C@H]1C5` [Naloxone], the “Decrease of tail flick AUC vs vehicle group, naloxone it” value (CD-1 mice [6]) was 4.6%, the “Effect of antagonist on SRI-22141 tail flick anti-nociception, naloxone icv” value (CD-1 mice [6]) was “strongly reduced” and the “Effect of antagonist on SRI-22141 tail flick anti-nociception, naloxone ip” value (CD-1 mice [6]) was “completely prevented”.
In the case of `Oc1ccc2c3c1O[C@H]1c4[nH]c5ccccc5c4C[C@@]4(O)[C@@H](C2)N(CC2CC2)CC[C@]314` [Naltrindole], the “Effect of antagonist on SRI-22141 anti-nociception in CIPN” value (CD-1 mice [2]) is reported as “strongly reduced”, the “Effect of antagonist on SRI-22141 tail flick anti-nociception, naltrindole ip” value (CD-1 mice [6]) is reported as “no impact” and the “Effect of antagonist on TNFα mRNA decrease caused by SRI-22141” value (TNFα mRNA) is reported as “reversed the decrease in TNFα caused by SRI-22141 back to baseline”.
